Measurements published in patent US20230110899A1, “NOVEL COMPOSITIONS FOR TREATMENT OF CORONAVIRUS DISEASE” (priority 2020, published 2023).
Several values for one entry are separate records, joined by “and”; a condition that tells them apart may be missing. Equal entries are not always repeated.

Key:
allergen-sensitized mice = conditions: mouse, in vivo; cited from earlier work
Zika virus = conditions: in vitro, by targeting nonstructural protein 5; cited from earlier work
[1] = test system: adult CF patients experiencing pulmonary exacerbation; conditions: cited from earlier work
[2] = Plasma and lung fenretinide exposure, oral and inhaled (Example 3); assay type: in vivo, C57BL/6 mice; conditions: nebulization of 0.65 mg/mL for 30 or 60 min; calculated, confirmed by analysis of lung tissue
Streptococcus suis = conditions: acute S. suis infection; cited from earlier work
Dengue infection = conditions: lethal mouse model; cited from earlier work
Spinal Cord Injury (SCI) = conditions: oral administration; cited from earlier work
Pseudomonas aeruginosa = conditions: Cftr.KO mice; cited from earlier work
ERK1/2 = conditions: macrophages pretreated prior to S. suis infection, vs nontreated infected macrophages; cited from earlier work
Dengue = conditions: cited from earlier work
[3] = target: T1, cytosolic phospholipases (cPLA2) (Homo sapiens, UniProt P47712); conditions: cited from earlier work
T1 sequence (P47712 1-749): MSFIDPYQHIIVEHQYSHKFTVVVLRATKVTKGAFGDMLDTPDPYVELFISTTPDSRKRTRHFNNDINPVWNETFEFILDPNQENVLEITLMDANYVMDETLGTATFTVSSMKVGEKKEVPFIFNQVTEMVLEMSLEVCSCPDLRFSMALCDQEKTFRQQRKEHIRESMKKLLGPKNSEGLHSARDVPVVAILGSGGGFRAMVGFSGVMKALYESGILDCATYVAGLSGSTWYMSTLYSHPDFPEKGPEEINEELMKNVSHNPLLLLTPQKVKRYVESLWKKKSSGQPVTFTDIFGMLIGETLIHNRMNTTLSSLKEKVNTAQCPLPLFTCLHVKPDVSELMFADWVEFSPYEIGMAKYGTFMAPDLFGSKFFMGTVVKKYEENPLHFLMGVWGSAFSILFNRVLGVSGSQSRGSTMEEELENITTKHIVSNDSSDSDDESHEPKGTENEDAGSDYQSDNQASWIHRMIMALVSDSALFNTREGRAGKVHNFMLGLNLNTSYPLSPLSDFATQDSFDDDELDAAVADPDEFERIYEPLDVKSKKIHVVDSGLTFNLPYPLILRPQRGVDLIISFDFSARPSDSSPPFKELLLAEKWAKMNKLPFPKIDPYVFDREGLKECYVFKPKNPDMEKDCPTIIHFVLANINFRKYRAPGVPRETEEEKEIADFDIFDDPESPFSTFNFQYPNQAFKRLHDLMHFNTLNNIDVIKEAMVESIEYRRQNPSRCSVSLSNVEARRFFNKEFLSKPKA

[4] = test system: LPS induced ARDS mouse model; assay: LPS induced ARDS mouse model (tracheal instillation of 60 μg of LPS), oral and inhaled; assay type: in vivo, C57BL/6 mice; conditions: for blood oxygen saturation (SpO2): 72 h; for blood reticulocyte count: vs LPS negative control
SARS-CoV-2 coronavirus = assay: SARS-CoV-2 plaque reduction assay in Vero E6 cells; assay type: cell-based; conditions: for Mean PFU/well: n=3
[5] = test system: MERS-CoV clinical isolate; conditions: viral spike (S) protein expression, infected Vero cells, IFA; read-out: 50% inhibitory concentration (IC50); cited from earlier work
Vero E6 cells = conditions: up to 40 μM concentrations
[6] = inhaled fenretinide 1.8 μg/kg, 72 hours
[7] = inhaled fenretinide 3.6 μg/kg, 72 hours

Structure (SMILES): CC1=C(/C=C/C(C)=C/C=C/C(C)=C/C(=O)Nc2ccc(O)cc2)C(C)(C)CCC1 [Fenretinide, 4-hydroxyphenyl retinamide]
- infiltration of inflammatory cells to the airways (allergen-sensitized mice): complete block of infiltration of inflammatory cells to the airways
- activity against Zika virus (Zika virus): potent activity
- plasma levels of IL-6, IL-8, IL-10 and neutrophils count ([1]; at the onset of the PEx episode): appeared to improve
- lipidomic markers ([1]; subgroup with pulmonary exacerbation (PEx)): normalized the lipidomic markers in a dose-response manner
- effective fenretinide dose delivered to the lungs (local lung concentration) [2]: 1 to 3 µM
- survival (Streptococcus suis): significantly improved their survival
- protection against Dengue infection (Dengue infection): can protect against Dengue infection
- locomotor recovery (Spinal Cord Injury (SCI)): improved locomotor recovery
- pulmonary load of Pseudomonas aeruginosa (Pseudomonas aeruginosa): significant decrease in the pulmonary load of Pseudomonas aeruginosa
- ERK1/2 activation (ERK1/2): significant reduction in ERK1/2 activation
- antiviral activity against Dengue fever disease (Dengue): potent antiviral activity
- activity of cytosolic phospholipases (cPLA2) [3]: inhibits the activity of cytosolic phospholipases
- blood oxygen saturation (SpO2) ([4]; inhaled fenretinide 1.8 μg/kg): partially, but significantly, alleviated the reduction of blood oxygen saturation
- lung protein concentration [4, 6]: reduced the lung protein concentration
- blood reticulocyte count [4, 6]: significantly increased reticulocyte counts
- myeloperoxidase (MPO) activity in the BALF ([4]; inhaled fenretinide 1.8 μg/kg, 72 hours, statistically significant vs negative control): reduced MPO activity
- blood oxygen saturation (SpO2) ([4]; inhaled fenretinide 3.6 μg/kg): partially, but significantly, alleviated the reduction of blood oxygen saturation
- lung protein concentration [4, 7]: reduced the lung protein concentration
- blood reticulocyte count [4, 7]: significantly increased reticulocyte counts
- IC50 (SARS-CoV-2 coronavirus; Severe acute respiratory syndrome coronavirus 2, Vero C1008, linear regression analysis (FIG. 1), R2=0.92, read-out: IC50, 50% inhibition of virus survival): 1570 nM
- % survival (SARS-CoV-2 coronavirus; fenretinide 0.625 μM): 80.5%
- Plaque forming unit counts, Wells 1-3 (individual counts/well) (SARS-CoV-2 coronavirus; fenretinide 0.625 μM): 21 and 19 and 22
- Mean PFU/well (SARS-CoV-2 coronavirus; fenretinide 0.625 μM): 20.7 PFU/well
- % survival (SARS-CoV-2 coronavirus; fenretinide 1.25 μM): 75.3%
- Plaque forming unit counts, Wells 1-3 (individual counts/well) (SARS-CoV-2 coronavirus; fenretinide 1.25 μM): 14 and 31 and 13
- Mean PFU/well (SARS-CoV-2 coronavirus; fenretinide 1.25 μM): 19.3 PFU/well
- % survival (SARS-CoV-2 coronavirus; fenretinide 2.5 μM): 24.7%
- Plaque forming unit counts, Wells 1-3 (individual counts/well) (SARS-CoV-2 coronavirus; fenretinide 2.5 μM): 6 and 3 and 10
- Mean PFU/well (SARS-CoV-2 coronavirus; fenretinide 2.5 μM): 6.3 PFU/well
- % survival (SARS-CoV-2 coronavirus; fenretinide 5 μM): 0.0%
- Plaque forming unit counts, Wells 1-3 (individual counts/well) (SARS-CoV-2 coronavirus; fenretinide 5 μM): 0
- Mean PFU/well (SARS-CoV-2 coronavirus; fenretinide 5 μM): 0.0 PFU/well
- IC50 [5]: 2800 nM

Structure (SMILES): CCC(CC)COC(=O)[C@H](C)N[P@](=O)(OC[C@H]1O[C@@](C#N)(c2ccc3c(N)ncnn23)[C@H](O)[C@@H]1O)Oc1ccccc1 [Remdesivir]
- cytopathic effect (Vero E6 cells): No cytopathic effect
- % virus survival (SARS-CoV-2 coronavirus; remdesivir 0.625 μM): 90.9%
- Plaque forming unit counts, Wells 1-3 (individual counts/well) (SARS-CoV-2 coronavirus; remdesivir 0.625 μM): 25 (2×) and 20
- Mean PFU/well (SARS-CoV-2 coronavirus; remdesivir 0.625 μM): 23.3 PFU/well
- % virus survival (SARS-CoV-2 coronavirus; remdesivir 1.25 μM): 42.9%
- Plaque forming unit counts, Wells 1-3 (individual counts/well) (SARS-CoV-2 coronavirus; remdesivir 1.25 μM): 10 and 11 and 12
- Mean PFU/well (SARS-CoV-2 coronavirus; remdesivir 1.25 μM): 11.0 PFU/well
- Plaque forming unit counts, Wells 1-3 (individual counts/well) (SARS-CoV-2 coronavirus; remdesivir 2.5 μM): 5 (2×) and 2
- Mean PFU/well (SARS-CoV-2 coronavirus; remdesivir 2.5 μM): 4.0 PFU/well
- % virus survival (SARS-CoV-2 coronavirus; remdesivir 5 μM): 2.6%
- Plaque forming unit counts, Wells 1-3 (individual counts/well) (SARS-CoV-2 coronavirus; remdesivir 5 μM): 1 (2×) and 0
- Mean PFU/well (SARS-CoV-2 coronavirus; remdesivir 5 μM): 0.7 PFU/well
- % virus survival (SARS-CoV-2 coronavirus; remdesivir 10 μM): 0%
- Plaque forming unit counts, Wells 1-3 (individual counts/well) (SARS-CoV-2 coronavirus; remdesivir 10 μM): 0
- Mean PFU/well (SARS-CoV-2 coronavirus; remdesivir 10 μM): 0.0 PFU/well
- % virus survival (SARS-CoV-2 coronavirus; remdesivir 20 μM): 0.0%
- Plaque forming unit counts, Wells 1-3 (individual counts/well) (SARS-CoV-2 coronavirus; remdesivir 20 μM): 0
- Mean PFU/well (SARS-CoV-2 coronavirus; remdesivir 20 μM): 0.0 PFU/well
- % virus survival (SARS-CoV-2 coronavirus; remdesivir 40 μM): 0.0%
- Plaque forming unit counts, Wells 1-3 (individual counts/well) (SARS-CoV-2 coronavirus; remdesivir 40 μM): 0
- Mean PFU/well (SARS-CoV-2 coronavirus; remdesivir 40 μM): 0.0 PFU/well
